Test results from patent US10067142B2, “Method for diagnosing, treating, or preventing mood disorder” (priority 2014, dated 2018).
Read-outs that look alike come from different tables or passages of the source.

Key:
Bcl-2 = conditions: Literatures 13 through 16, cited from earlier work
[1] = tested on: SITH-1/Adv nasal administration mice; experiment: Tail suspension test of SSRI-treated SITH-1/Adv nasal administration mice; type: in vivo; conditions: 80 mg/L Fluoxetine solution as drinking water from 2 weeks before nasal SITH-1/Adv; test 7 days after nasal administration, 10 minutes
Experimental: 8-week-old C57BL/6NCrSlc mice were raised at a room temperature of 24±1° C. and with lights on for 12 hours and off for 12 hours. After each of the mice was anesthetized with use of isoflurane, SITH-1/Adv or empty/Adv in an amount equivalent to 2.5×10^7 ifu was dropped onto the nasal cavity, and was then sucked along with breathing. Then, the mice were returned to raising cages.
7 days after the nasal administration of SITH-1/Adv or empty/Adv, a tail suspension test was carried out for 10 minutes. A period of immobility time was measured with use of TailSuspScanTopScan (CleverSys, Inc.). The tail suspension test was carried out by suspending each mouse by taping the tail 1 cm from the end. […] In the experiment, 30 mice were used in each group.
Then, it was studied whether or not an SSRI (selective serotonin reuptake inhibitor), which is an antidepressant, would restrict an increase in immobility time, the increase being caused by the nasal administration of the SITH-1/Adv. 80 mg/L of Fluoxetine solution as drinking water was given to 6-week-old mice (see Literature 18), and then the mice were raised for 2 weeks. Then, SITH-1/Adv was nasally administered. 7 days after the nasal administration, a tail suspension test was carried out for 10 minutes. […] Statistical significance (* indicates P<0.05, ** indicates P<0.01, and *** indicates P<0.001) was calculated by use of the Mann-Whitney U-test.

HHV-6 HST strain = experiment: SITH-1 expression in HHV-6-infected U373 cells pre-reacted with heparin or anti-heparan sulfate peptide; type: cell-based; conditions: cells reacted with 10 unit/mL Novo-Heparin at 4° C. for 1 hour before infection; MOI 3; 48 hours
Experimental: U373 astrocytoma cells were removed with use of trypsin-EDTA, and then a medium (10% FBS-containing DMEM) was added, so that the resultant cells were at 1×10^5 cell/mL. Then, the U373 cells were reacted with 10 unit/mL of Novo-Heparin (Mochida Pharmaceutical Co., Ltd.) or 0.1 mM of anti-3-OS Heparan sulfate (HS) peptide trifluoroacetate salt (Sigma-Aldrich) at 4° C. for 1 hour. The U373 cells were also reacted only with a medium as a control at 4° C. for 1 hour. The resultant cells were washed 3 times with a medium. Then, the U373 cells thus washed were infected with a HHV-6 HST strain virus fluid (2.9×10^6 ffu/ml) at a MOI of 3 by centrifugation. Then, the infected cells were cultured at 37° C. for 48 hours in a CO2 incubator.
From the resultant infected cells, RNA was purified by use of RNeasy Mini Kit (Qiagen) in accordance with the standard protocol. Then, cDNA was synthesized by use of a PrimeScript RT Reagent Kit (Takara Bio). Finally, expression levels of SITH-1 and GAPDH mRNA were measured by a method similar to that used in the above (3.1).

Molecule	Bcl-2 expression in the brain (Bcl-2)	further results
N[C@@H]1C[C@H]1c1ccccc1 (racemic) [tranylcypromine]	promote Bcl-2 expression in the brain	–
CNCCC(Oc1ccc(C(F)(F)F)cc1)c1ccccc1 (stereo not shown) [Fluoxetine]	promotes Bcl-2 expression	Bcl-2 expression in the brain (Bcl-2; listed as fluoxetine): promote Bcl-2 expression in the brain; immobility time increases in tail suspension test [1]: restricted
CN(C)CCC=C1c2ccccc2CCc2ccccc21 [amitriptyline]	promote Bcl-2 expression in the brain	–
CNCCCN1c2ccccc2CCc2ccccc21 [desipramine]	promote Bcl-2 expression in the brain	–
CN(C)CCCN1c2ccccc2CCc2ccccc21 [imipramine]	promote Bcl-2 expression in the brain	–
CCOc1ccccc1OC(c1ccccc1)C1CNCCO1 (stereo not shown) [reboxetine]	promote Bcl-2 expression in the brain	–
COc1ccc(C(CN(C)C)C2(O)CCCCC2)cc1 (stereo not shown) [venlafaxine]	promote Bcl-2 expression in the brain	–
heparin	–	SITH-1 expression in U373 cells (HHV-6 HST strain): restricted
